Experimental data as given in US10434112B2, “Use of agonists of formyl peptide receptor 2 for treating dermatological diseases” (Allergan, Inc., priority 2013, dated 2019).

Target: human FPR2 receptor (Homo sapiens (Human), UniProt P25090)
Assay: FLIPR Ca+2 response in HEK-Gα16 cells stably expressing the human FPR2 receptor
Assay type: cell-based
Design: FPR2 (% eff): unit not given here
Details: Table 4
Experimental: FLIPR: HEK-Gα16 cells stably expressing the human FPR2 receptor was utilized. Cells were plated into 384-well poly-D-lysine coated plates at a density of 18,000 cells per well one day prior to use. The growth media was DMEM medium supplemented with 10% fetal bovine serum (FBS), 1% antibiotic-antimycotic, 50 μg/ml hygromycin, and 400 μg/ml geneticin. On the day of the experiment, the cells were washed twice with Hank's Balanced Salt Solution supplemented with 20 mM HEPES (HBSS/hepes buffer). The cells were then dye loaded with 2 μM Fluo-4 diluted in the HBSS/Hepes buffer and incubated at 37° C. for 40 minutes. Extracellular dye was removed by washing the cell plates four times prior to placing the plates in the FLIPR (Fluorometric Imaging Plate Reader, Molecular Devices). Ligands were diluted in HBSS/Hepes buffer and prepared in 384-well microplates. Data for Ca^+2 responses were obtained in relative fluorescence units.

Chain of human FPR2 receptor (P25090 whole entry): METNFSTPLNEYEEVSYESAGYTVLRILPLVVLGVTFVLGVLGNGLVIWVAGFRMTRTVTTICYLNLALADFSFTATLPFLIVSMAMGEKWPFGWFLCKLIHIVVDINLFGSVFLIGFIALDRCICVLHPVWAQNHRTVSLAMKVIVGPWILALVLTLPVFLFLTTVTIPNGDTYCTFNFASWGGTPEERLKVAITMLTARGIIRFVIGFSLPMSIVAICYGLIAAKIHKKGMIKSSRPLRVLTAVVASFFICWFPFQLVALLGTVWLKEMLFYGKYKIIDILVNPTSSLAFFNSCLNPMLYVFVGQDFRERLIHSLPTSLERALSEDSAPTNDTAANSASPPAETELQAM

In order of falling EC50:
1. CCC(CC)(NC(=O)Nc1ccc(Br)cc1)C(=O)NCC(=O)O [Compound 113]  18.7 nM
2. CC1(CCc2ccccc2F)NC(=O)N(NC(=O)Nc2ccc(Br)cc2)C1=O (stereo not drawn) [Compound 80, 1-(4-bromophenyl)-3-{4-[2-(2-fluorophenyl)ethyl]-4-methyl-2,5-dioxoimidazolidin-1-yl}urea]  14.3 nM
3. CC1(CCc2cccc(O)c2)NC(=O)N(NC(=O)Nc2ccc(Br)cc2)C1=O (stereo not drawn) [Compound 108, 1-(4-bromophenyl)-3-{4-[2-(3-hydroxyphenyl)ethyl]-4-methyl-2,5-dioxoimidazolidin-1-yl}urea]  2.1 nM

Same assay, conditions: Table 4; value in brackets, given mostly as fraction

In order of falling “FPR2 (% eff)” value:
1. CC1(CCc2cccc(O)c2)NC(=O)N(NC(=O)Nc2ccc(Br)cc2)C1=O (stereo not drawn) [Compound 108, 1-(4-bromophenyl)-3-{4-[2-(3-hydroxyphenyl)ethyl]-4-methyl-2,5-dioxoimidazolidin-1-yl}urea]  100
2. CCC(CC)(NC(=O)Nc1ccc(Br)cc1)C(=O)NCC(=O)O [Compound 113]  100
3. CC1(CCc2ccccc2F)NC(=O)N(NC(=O)Nc2ccc(Br)cc2)C1=O (stereo not drawn) [Compound 80, 1-(4-bromophenyl)-3-{4-[2-(2-fluorophenyl)ethyl]-4-methyl-2,5-dioxoimidazolidin-1-yl}urea]  99
4. CC1(CCc2ccc(F)cc2)NC(=O)N(NC(=O)Nc2ccc(Br)cc2)C1=O (stereo not drawn) [Compound 82, 1-(4-bromophenyl)-3-{4-[2-(4-fluorophenyl)ethyl]-4-methyl-2,5-dioxoimidazolidin-1-yl}urea]  1.0
5. CC1(CCc2cccc(F)c2)NC(=O)N(NC(=O)Nc2ccc(Br)cc2)C1=O (stereo not drawn) [Compound 83, 1-(4-bromophenyl)-3-{4-[2-(3-fluorophenyl)ethyl]-4-methyl-2,5-dioxoimidazolidin-1-yl}urea]  1.0
6. CC1(CCc2ccc(O)cc2)NC(=O)N(NC(=O)Nc2ccc(Br)cc2)C1=O (stereo not drawn) [Compound 86, 1-(4-bromophenyl)-3-{4-[2-(4-hydroxyphenyl)ethyl]-4-methyl-2,5-dioxoimidazolidin-1-yl}urea]  1.0
7. CC(C)C[C@H](NC(=O)Nc1ccc(Br)cc1)C(=O)N[C@H](C(N)=O)C(C)C [Compound 92, (2S)-N-[(2S)-1-amino-3-methyl-1-oxobutan-2-yl]-2-{[(4-bromophenyl)carbamoyl]amino}-4-methylpentanamide]  1.0
8. CC(C)C[C@H](NC(=O)Nc1ccc(Br)cc1)C(=O)N[C@H](C)CO [Compound 96, (2S)-2-{[(4-bromophenyl)carbamoyl]amino}-N-[(2R)-1-hydroxypropan-2-yl]-4-methylpentanamide]  1.0
9. CC1(CCc2ccc(O)c(F)c2)NC(=O)N(NC(=O)Nc2ccc(Br)cc2)C1=O (stereo not drawn) [Compound 99, 1-(4-bromophenyl)-3-{4-[2-(3-fluoro-4-hydroxyphenyl)ethyl]-4-methyl-2,5-dioxoimidazolidin-1-yl}urea]  1.0
10. CCC[C@H](NC(=O)[C@H](CC(C)C)NC(=O)Nc1ccc(Br)cc1)C(=O)OC(C)(C)C [Compound 100, tert-butyl (2S)-2-{[(2S)-2-{[(4-bromophenyl)carbamoyl]amino}-4-methylpentanoyl]amino} pentanoate]  1.0
11. CC(C)C[C@H](NC(=O)Nc1ccc(Br)cc1)C(=O)N[C@H](C(=O)O)c1ccccc1 [Compound 103, (2S)-{[(2S)-2-{[(4-bromophenyl)carbamoyl]amino}-4-methylpentanoyl]amino} (phenyl)ethanoic acid]  1.0
12. CCOP(=O)(CNC(=O)[C@@H](NC(=O)Nc1ccc(Br)cc1)[C@@H](C)CC)OCC [Compound 114, diethyl ({[(2S,3S)-2-{[(4-bromophenyl)carbamoyl]amino}-3-methylpentanoyl]amino}methyl)phosphonate]  1.0
13. CC(C)C[C@H](NC(=O)Nc1ccc(Br)cc1)C(=O)NCc1cc(O)no1 [Compound 116, (2S)-2-{[(4-bromophenyl)carbamoyl]amino}-N-[(3-hydroxy-1,2-oxazol-5-yl)methyl]-4-methylpentanamide]  1.0
14. CCC[C@H](NC(=O)Nc1ccc(Br)cc1)C(=O)NCP(=O)(OCC)OCC [Compound 117, diethyl ({[(2S)-2-{[(4-bromophenyl)carbamoyl]amino}pentanoyl]amino}methy) phosphonate]  1.0
15. CC(=O)CNC(=O)[C@H](CC(C)C)NC(=O)Nc1ccc(Br)cc1F [Compound 85, (2S)-2-{[(4-bromo-2-fluorophenyl)carbamoyl]amino}-4-methyl-N-(2-oxopropyl)pentanamide]  0.99
16. CCC[C@H](NC(=O)[C@H](CC(C)C)NC(=O)Nc1ccc(Br)cc1)C(N)=O [Compound 102, (2S)-N-[(2S)-1-amino-1-oxopentan-2-yl]-2-{[(4-bromophenyl)carbamoyl]amino}-4-methylpentanamide]  0.99
17. CC(C)CC(C)(NC(=O)Nc1ccc(Br)cc1)C(=O)NCC(=O)O (stereo not drawn) [Compound 111, [(2-{[(4-bromophenyl)carbamoyl]amino}-2,4-dimethylpentanoyl)amino] acetic acid]  0.99
18. CC(C)CC(C)(NC(=O)Nc1ccc(Br)cc1)C(=O)O (stereo not drawn) [Compound 110, 2-{[(4-bromophenyl)carbamoyl]amino}-2,4-dimethylpentanoic acid]  0.98
19. CCC[C@H](NC(=O)Nc1ccc(Br)cc1)C(=O)NCC(N)=O [Compound 79, (2S)-N-(2-amino-2-oxoethyl)-2-{[(4-bromophenyl)carbamoyl]amino}pentanamide]  0.97
20. CC(C)C[C@H](NC(=O)Nc1ccc(Br)cc1)C(=O)N[C@H](C(=O)O)C(C)C [Compound 91, (2S)-2-{[(2S)-2-{[(4-bromophenyl)carbamoyl]amino}-4-methylpentanoyl]amino}-3-methylbutanoic acid]  0.97
21. CCC[C@H](NC(=O)Nc1ccc(Br)cc1F)C(=O)NCC(N)=O [Compound 81, (2S)-N-(2-amino-2-oxoethyl)-2-{[(4-bromo-2-fluorophenyl)carbamoyl]amino} pentanamide]  0.96
22. CC(C)C[C@H](NC(=O)Nc1ccc(Br)cc1)C(=O)NC(CO)CO [Compound 94, (2S)-2-{[(4-bromophenyl)carbamoyl]amino}-N-(1,3-dihydroxypropan-2-yl)-4-methylpentanamide]  0.96
23. CC(C)C[C@H](NC(=O)Nc1ccc(Br)cc1F)C(=O)NCC(N)=O [Compound 84, (2S)-N-(2-amino-2-oxoethyl)-2-{[(4-bromo-2-fluorophenyl)carbamoyl]amino}-4-methylpentanamide]  0.95
24. CC(C)C[C@H](NC(=O)Nc1ccc(Br)cc1F)C(=O)N[C@@H](C)C(=O)O [Compound 87, (2S)-2-{[(2S)-2-{[(4-bromo-2-fluorophenyl)carbamoyl]amino}-4-methylpentanoyl]amino}propanoic acid]  0.95
25. Cc1ccc(CCC2(C)NC(=O)N(NC(=O)Nc3ccc(Br)cc3)C2=O)o1 (stereo not drawn) [Compound 97, 1-(4-bromophenyl)-3-{4-methyl-4-[2-(5-methylfuran-2-yl)ethyl]-2,5-dioxoimidazolidin-1-yl}urea]  0.95
26. CCC[C@H](NC(=O)[C@H](CC(C)C)NC(=O)Nc1ccc(Br)cc1)C(=O)O [Compound 101, (2S)-2-{[(2S)-2-{[(4-bromophenyl)carbamoyl]amino}-4-methylpentanoyl]amino} pentanoic acid]  0.95
27. CC1(CCc2cccs2)NC(=O)N(NC(=O)Nc2ccc(Br)cc2)C1=O (stereo not drawn) [Compound 88, 1-(4-bromophenyl)-3-{4-methyl-2,5-dioxo-4-[2-(thiophen-2-yl)ethyl]imidazolidin-1-yl}urea]  0.94
28. CC(C)C[C@H](NC(=O)Nc1ccc(Br)cc1)C(=O)NCC(C)(C)O [Compound 93, (2S)-2-{[(4-bromophenyl)carbamoyl]amino}-N-(2-hydroxy-2-methylpropyl)-4-methylpentanamide]  0.93
29. CC1(CCc2ccccc2O)NC(=O)N(NC(=O)Nc2ccc(Br)cc2)C1=O (stereo not drawn) [Compound 109, 1-(4-bromophenyl)-3-{4-[2-(2-hydroxyphenyl)ethyl]-4-methyl-2,5-dioxoimidazolidin-1-yl}urea]  0.93
30. CC1(CCc2ccc(O)c(F)c2)NC(=O)N(NC(=O)Nc2ccc(Br)cc2F)C1=O (stereo not drawn) [Compound 98, 1-(4-bromo-2-fluorophenyl)-3-{4-[2-(3-fluoro-4-hydroxyphenyl)ethyl]-4-methyl-2,5-dioxoimidazolidin-1-yl}urea]  0.91
31. CC1(CCc2ccccc2O)NC(=O)N(NC(=O)Nc2ccc(Br)cc2F)C1=O (stereo not drawn) [Compound 106, 1-(4-bromo-2-fluorophenyl)-3-[4-[2-[2-hydroxyphenyl)ethyl]-4-methyl-2,5-dioxoimidazolidin-1-yl}urea]  0.91
32. CCOP(=O)(O)CNC(=O)[C@H](CC(C)C)NC(=O)Nc1ccc(Br)cc1 [Compound 105, ethyl hydrogen ({[(2S)-2-{[(4-bromophenyl)carbamoyl]amino}-4-methylpentanoyl]amino}methyl)phosphonate]  0.88
33. CCOP(=O)(O)CNC(=O)[C@@H](NC(=O)Nc1ccc(Br)cc1)[C@@H](C)CC [Compound 115, ethyl hydrogen ({[(2S,3S)-2-{[(4-bromophenyl)carbamoyl]amino}3-methylpentanoyl]amino}methyl)phosphonate]  0.88
34. CC1(CCc2ccc(O)cc2)NC(=O)N(NC(=O)Nc2ccc(Br)cc2F)C1=O (stereo not drawn) [Compound 89, 1-(4-bromo-2-fluorophenyl)-3-{4-[2-(4-hydroxyphenyl)ethyl]-4-methyl-2,5-dioxoimidazolidin-1-yl}urea]  0.85
35. CC(C)C[C@H](NC(=O)Nc1ccc(Br)cc1)C(=O)NCc1nnn[nH]1 [Compound 104, (2S)-2-{[(4-bromophenyl)carbamoyl]amino}-4-methyl-N-(1H-tetrazol-5-ylmethyl)pentanamide]  0.81
36. CC1(CCc2cccc(O)c2)NC(=O)N(NC(=O)Nc2ccc(Br)cc2F)C1=O (stereo not drawn) [Compound 107, 1-(4-bromo-2-fluorophenyl)-3-{4-[2-(3-hydroxyphenyl)ethyl]-4-methyl-2,5-dioxoimidazolidin-1-yl}urea]  0.79
